Data: patent US6852673B2, “Herbicidal pyridine compounds” (BASF Aktiengesellschaft, priority 1998, dated 2005)

Legend:
Format in all cases: in vivo
Solanum nigrum (SOLNI) = experiment: Post-emergence herbicidal evaluation, black nightshade; conditions: rated 2 to 4 weeks after treatment
Summary of the method: (§1)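 Injury was scored visually from 0 to 9, with 0 matching untreated plants and 9 denoting death, between 2 and 4 weeks after foliar application of aqueous dilutions of acetone solutions at roughly 0.03–0.4 kg/ha per pot.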

[1] = system: Matricaria inodora (MATIN); experiment: Post-emergence herbicidal evaluation, mayweed; conditions: rated 2 to 4 weeks after treatment
Summary of the method: as §1

Lamium purpureum (LAMPU) [2] = experiment: Post-emergence herbicidal evaluation, purple deadnettle; conditions: rated 2 to 4 weeks after treatment
Summary of the method: as §1

[3] = system: Ambrosia artemiisifolia (AMBEL); experiment: Pre-emergence herbicidal evaluation, ragweed
Summary of the method: (§2)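 Rating done 2–4 weeks post-treatment in the greenhouse. Compound, in aqueous acetone, was sprayed onto soil surface right after sowing, at rates equivalent to about 0.0125–0.4 kg per hectare, before crop or weed emergence.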

[4] = system: Ambrosia artemiisifolia (AMBEL); experiment: Post-emergence herbicidal evaluation, ragweed; conditions: rated 2 to 4 weeks after treatment
Summary of the method: as §1

Glycine max (GLXMA) [5] = experiment: Post-emergence herbicidal evaluation, soyabeans; conditions: rated 2 to 4 weeks after treatment
Description: [table] [table] […] These acetone solutions are diluted with water and the resulting formulations applied at dosage levels equivalent of about 0.03 to 0.4 kg per hectare of test compound per pot. After spraying the plants are placed on greenhouse benches and are cared for in the usual manner, commensurate with conventional greenhouse practices. From 2 to 4 weeks after treatment, the seedling plants are examined and rated according to the rating system provided above. A rating 0 indicates growth as untreated control, a rating 9 indicates death.

[6] = system: Digitaria sanguinalis (DIGSA); experiment: Post-emergence herbicidal evaluation, large crabgrass; conditions: rated 2 to 4 weeks after treatment
Summary of the method: as §1

[7] = system: Triticum aestivum (TRZAW); experiment: Post-emergence herbicidal evaluation, winter wheat; conditions: rated 2 to 4 weeks after treatment
Summary of the method: as §1

Lamium purpureum (LAMPU) [8] = experiment: Pre-emergence herbicidal evaluation, purple deadnettle
Summary of the method: as §2

Setaria viridis (SETVI) = experiment: Pre-emergence herbicidal evaluation, green foxtail
Summary of the method: as §2

[9] = system: Alopecurus myosuroides (ALOMY); experiment: Post-emergence herbicidal evaluation, black grass; conditions: rated 2 to 4 weeks after treatment
Summary of the method: as §1

Oryza sativum (ORYSA) [10] = experiment: Post-emergence herbicidal evaluation, rice; conditions: rated 2 to 4 weeks after treatment
Summary of the method: as §1

[11] = system: Echinochloa grus galli (ECHCG); experiment: Pre-emergence herbicidal evaluation, barnyard grass
Summary of the method: as §2

[12] = system: Abutilon theophrasti (ABUTH); experiment: Post-emergence herbicidal evaluation, velvetleaf; conditions: rated 2 to 4 weeks after treatment
Summary of the method: as §1

Hordeum vulgare (HORVW) = experiment: Post-emergence herbicidal evaluation, winter barley; conditions: rated 2 to 4 weeks after treatment
Summary of the method: as §1

Oryza sativum (ORYSA) [13] = experiment: Pre-emergence herbicidal evaluation, rice
Summary of the method: as §2

[14] = system: Ipomoea hederacea (IPOHE); experiment: Pre-emergence herbicidal evaluation, morning glory
Summary of the method: as §2

Galium aparine (GALAP) = experiment: Post-emergence herbicidal evaluation, cleaver; conditions: rated 2 to 4 weeks after treatment
Summary of the method: as §1

[15] = system: Ipomoea hederacea (IPOHE); experiment: Post-emergence herbicidal evaluation, morning glory; conditions: rated 2 to 4 weeks after treatment
Summary of the method: as §1

[16] = system: Alopecurus myosuroides (ALOMY); experiment: Pre-emergence herbicidal evaluation, black grass
Summary of the method: as §2

Stellaria media (STEME) [17] = experiment: Pre-emergence herbicidal evaluation, chickweed
Summary of the method: as §2

Glycine max (GLXMA) [18] = experiment: Pre-emergence herbicidal evaluation, soyabeans
Summary of the method: as §2

[19] = system: Triticum aestivum (TRZAW); experiment: Pre-emergence herbicidal evaluation, winter wheat
Summary of the method: as §2

Stellaria media (STEME) [20] = experiment: Post-emergence herbicidal evaluation, chickweed; conditions: rated 2 to 4 weeks after treatment
Summary of the method: as §1

[21] = system: Abutilon theophrasti (ABUTH); experiment: Pre-emergence herbicidal evaluation, velvetleaf
Summary of the method: as §2

Zea mays (ZEAMX) = experiment: Pre-emergence herbicidal evaluation, maize
Summary of the method: as §2

COc1cc(OCC(F)(F)C(F)F)nc(Oc2cc(C(F)(F)F)nn2C)c1 [Example 4, 2-(1-Methyl-3-trifluoromethylpyrazol-5-yloxy)-4-methoxy-6-(2,2,3,3-tetrafluoropropyloxy)pyridine]
7 (7 - Good herbicidal effect): MATIN rating ([1]; dose 0.1 kg/ha) | MATIN rating ([1]; dose 0.4 kg/ha) | LAMPU rating (Lamium purpureum (LAMPU) [2]; dose 0.03 kg/ha) | AMBEL rating ([4]; dose 0.4 kg/ha) | DIGSA rating ([6]; dose 0.1 kg/ha) | ABUTH rating ([21]; dose 0.1 kg/ha)
6 (6 - Herbicidal effect): AMBEL rating ([4]; dose 0.1 kg/ha) | ALOMY rating ([9]; dose 0.1 kg/ha) | ABUTH rating ([12]; dose 0.1 kg/ha) | ABUTH rating ([12]; dose 0.4 kg/ha) | IPOHE rating ([14]; dose 0.025 kg/ha) | GALAP rating (Galium aparine (GALAP); dose 0.03 kg/ha) | STEME rating (Stellaria media (STEME) [17]; dose 0.025 kg/ha) | GLXMA rating (Glycine max (GLXMA) [18]; dose 0.1 kg/ha) | STEME rating (Stellaria media (STEME) [20]; dose 0.03 kg/ha) | STEME rating (Stellaria media (STEME) [20]; dose 0.1 kg/ha)
0 (0 - No effect): TRZAW rating ([19]; dose 0.013 kg/ha) | TRZAW rating ([19]; dose 0.025 kg/ha)
9 (9 - Complete kill): AMBEL rating ([3]; dose 0.025 kg/ha) | AMBEL rating ([3]; dose 0.1 kg/ha) | AMBEL rating ([3]; dose 0.4 kg/ha) | LAMPU rating (Lamium purpureum (LAMPU) [8]; dose 0.1 kg/ha) | LAMPU rating (Lamium purpureum (LAMPU) [8]; dose 0.4 kg/ha) | SETVI rating (Setaria viridis (SETVI); dose 0.1 kg/ha) | SETVI rating (Setaria viridis (SETVI); dose 0.4 kg/ha) | IPOHE rating ([14]; dose 0.1 kg/ha) | IPOHE rating ([14]; dose 0.4 kg/ha) | GALAP rating (Galium aparine (GALAP); dose 0.1 kg/ha) | GALAP rating (Galium aparine (GALAP); dose 0.4 kg/ha) | IPOHE rating ([15]; dose 0.1 kg/ha) | IPOHE rating ([15]; dose 0.4 kg/ha) | STEME rating (Stellaria media (STEME) [17]; dose 0.1 kg/ha) | STEME rating (Stellaria media (STEME) [17]; dose 0.4 kg/ha) | ABUTH rating ([21]; dose 0.4 kg/ha)
1 (1 - Trace effect): ORYSA rating (Oryza sativum (ORYSA) [13]; dose 0.013 kg/ha) | ORYSA rating (Oryza sativum (ORYSA) [13]; dose 0.025 kg/ha) | GLXMA rating (Glycine max (GLXMA) [18]; dose 0.013 kg/ha) | TRZAW rating ([19]; dose 0.1 kg/ha) | ZEAMX rating (Zea mays (ZEAMX); dose 0.013 kg/ha) | ZEAMX rating (Zea mays (ZEAMX); dose 0.025 kg/ha)
5 (5 - Definite injury): SOLNI rating (Solanum nigrum (SOLNI); dose 0.1 kg/ha) | SOLNI rating (Solanum nigrum (SOLNI); dose 0.4 kg/ha) | MATIN rating ([1]; dose 0.03 kg/ha) | GLXMA rating (Glycine max (GLXMA) [5]; dose 0.03 kg/ha) | DIGSA rating ([6]; dose 0.03 kg/ha) | TRZAW rating ([7]; dose 0.4 kg/ha) | SETVI rating (Setaria viridis (SETVI); dose 0.013 kg/ha) | ECHCG rating ([11]; dose 0.025 kg/ha) | HORVW rating (Hordeum vulgare (HORVW); dose 0.4 kg/ha) | ABUTH rating ([21]; dose 0.025 kg/ha) | ZEAMX rating (Zea mays (ZEAMX); dose 0.4 kg/ha)
3 (3 - Moderate effect): AMBEL rating ([4]; dose 0.03 kg/ha) | TRZAW rating ([7]; dose 0.1 kg/ha) | ALOMY rating ([9]; dose 0.03 kg/ha) | ECHCG rating ([11]; dose 0.013 kg/ha) | HORVW rating (Hordeum vulgare (HORVW); dose 0.03 kg/ha) | HORVW rating (Hordeum vulgare (HORVW); dose 0.1 kg/ha) | ORYSA rating (Oryza sativum (ORYSA) [13]; dose 0.4 kg/ha) | IPOHE rating ([14]; dose 0.013 kg/ha) | ALOMY rating ([16]; dose 0.025 kg/ha) | ABUTH rating ([21]; dose 0.013 kg/ha) | ZEAMX rating (Zea mays (ZEAMX); dose 0.1 kg/ha)
4 (4 - Injury): SOLNI rating (Solanum nigrum (SOLNI); dose 0.03 kg/ha) | AMBEL rating ([3]; dose 0.013 kg/ha) | ORYSA rating (Oryza sativum (ORYSA) [10]; dose 0.4 kg/ha) | ABUTH rating ([12]; dose 0.03 kg/ha) | STEME rating (Stellaria media (STEME) [17]; dose 0.013 kg/ha) | GLXMA rating (Glycine max (GLXMA) [18]; dose 0.025 kg/ha) | TRZAW rating ([19]; dose 0.4 kg/ha)
8 (8 - Approaching complete kill): LAMPU rating (Lamium purpureum (LAMPU) [2]; dose 0.4 kg/ha) | GLXMA rating (Glycine max (GLXMA) [5]; dose 0.1 kg/ha) | GLXMA rating (Glycine max (GLXMA) [5]; dose 0.4 kg/ha) | DIGSA rating ([6]; dose 0.4 kg/ha) | LAMPU rating (Lamium purpureum (LAMPU) [8]; dose 0.013 kg/ha) | LAMPU rating (Lamium purpureum (LAMPU) [8]; dose 0.025 kg/ha) | SETVI rating (Setaria viridis (SETVI); dose 0.025 kg/ha) | ALOMY rating ([9]; dose 0.4 kg/ha) | ECHCG rating ([11]; dose 0.1 kg/ha) | ECHCG rating ([11]; dose 0.4 kg/ha) | IPOHE rating ([15]; dose 0.03 kg/ha) | ALOMY rating ([16]; dose 0.1 kg/ha) | ALOMY rating ([16]; dose 0.4 kg/ha) | GLXMA rating (Glycine max (GLXMA) [18]; dose 0.4 kg/ha) | STEME rating (Stellaria media (STEME) [20]; dose 0.4 kg/ha)
2 (2 - Slight effect): TRZAW rating ([7]; dose 0.03 kg/ha) | ORYSA rating (Oryza sativum (ORYSA) [10]; dose 0.03 kg/ha) | ORYSA rating (Oryza sativum (ORYSA) [10]; dose 0.1 kg/ha) | ORYSA rating (Oryza sativum (ORYSA) [13]; dose 0.1 kg/ha)
